Like-named read-outs stand apart in the source and are kept apart here. One block for each substance: values may come before it.
How the values were obtained:
[1] = biological target: T1, prostaglandin D2 (PGD2) receptor 1 (DP1) (Homo sapiens, UniProt Q13258); experiment: DP1 receptor cAMP assay (agonist mode); type: cell-based; conditions: cAMP, cells overexpressing human DP1
T1 construct: expressed in transfected cells; host or cells: HEK293T
T1 sequence (Q13258 1-359): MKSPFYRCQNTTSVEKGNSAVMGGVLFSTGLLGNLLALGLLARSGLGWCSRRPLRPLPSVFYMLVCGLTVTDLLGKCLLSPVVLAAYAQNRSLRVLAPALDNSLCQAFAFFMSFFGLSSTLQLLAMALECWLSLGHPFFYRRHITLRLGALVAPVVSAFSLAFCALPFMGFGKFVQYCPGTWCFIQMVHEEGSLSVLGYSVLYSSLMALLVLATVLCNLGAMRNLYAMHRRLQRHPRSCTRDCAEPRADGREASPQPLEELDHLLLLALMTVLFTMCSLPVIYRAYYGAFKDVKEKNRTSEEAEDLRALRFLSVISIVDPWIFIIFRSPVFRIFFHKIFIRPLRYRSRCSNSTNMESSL

[2] = biological target: T2, prostaglandin I2 (PGI2) receptor (IP) (Homo sapiens, UniProt P43119); experiment: IP receptor cAMP assay (agonist mode); type: cell-based; conditions: cAMP, cells overexpressing human IP
T2 construct: expressed in transfected cells; host or cells: CHO-K1
T2 sequence (P43119 whole entry): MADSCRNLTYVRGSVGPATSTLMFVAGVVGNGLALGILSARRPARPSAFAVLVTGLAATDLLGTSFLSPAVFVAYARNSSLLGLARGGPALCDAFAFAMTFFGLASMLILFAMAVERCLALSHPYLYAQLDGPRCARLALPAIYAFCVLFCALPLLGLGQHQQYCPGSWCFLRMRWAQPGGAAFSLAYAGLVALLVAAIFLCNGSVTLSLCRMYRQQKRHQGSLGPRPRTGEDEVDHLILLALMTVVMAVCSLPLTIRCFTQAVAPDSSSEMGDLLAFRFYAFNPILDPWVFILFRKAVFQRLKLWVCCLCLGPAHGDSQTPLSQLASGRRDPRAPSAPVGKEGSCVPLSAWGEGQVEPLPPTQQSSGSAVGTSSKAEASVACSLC

[3] = biological target: T3, prostaglandin E2 (PGE2) receptor 2 (EP2) (Homo sapiens, UniProt P43116); experiment: EP2 receptor cAMP assay (agonist mode); type: cell-based; conditions: cAMP, cells overexpressing human EP2
T3 construct: expressed in transfected cells; host or cells: HEK293T
T3 sequence (P43116 whole entry): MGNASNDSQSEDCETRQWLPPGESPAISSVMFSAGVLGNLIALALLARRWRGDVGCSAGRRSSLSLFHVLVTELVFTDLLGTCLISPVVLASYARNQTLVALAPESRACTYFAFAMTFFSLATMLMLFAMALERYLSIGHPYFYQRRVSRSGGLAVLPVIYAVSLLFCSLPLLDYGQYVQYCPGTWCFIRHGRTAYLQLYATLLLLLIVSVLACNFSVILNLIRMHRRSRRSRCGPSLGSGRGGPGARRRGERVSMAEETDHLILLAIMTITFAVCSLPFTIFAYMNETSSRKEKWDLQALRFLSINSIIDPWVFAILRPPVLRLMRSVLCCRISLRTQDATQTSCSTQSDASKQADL

[4] = Stability and formation of treprostinil in simulated intestinal fluid; type: in vitro ADME; conditions: for Half-Life: SIF pH 6.8, 1 μM, 37° C.; for Formation of Treprostinil, Concentration: SIF, prodrug dosed at 1 μM
[5] = microsomes
[6] = Plasma stability and formation of treprostinil, rat plasma; type: in vitro ADME; conditions: for Formation of Treprostinil, Concentration: prodrug dosed at 1 μM; for Half-Life / Percent Remaining: 1 μM, 37° C.
Method: (§1) Studies were carried out in mixed-gender human plasma male Sprague-Dawley rat plasma, and male Beagle dog plasma. All plasma was obtained from Bioreclamation and collected on K2EDTA. Plasma was adjusted to pH 7.4 prior to initiating the experiments. DMSO stocks were first prepared for the test articles. […] The vials were kept in a benchtop Thermomixer® for the duration of the experiment. […] Samples were stored at 4° C. until the end of the experiment. After the final time point was sampled, the plate was mixed and then centrifuged at 3000 rpm for 10 minutes.

[7] = Stability and formation of treprostinil in human cryopreserved hepatocytes
Method: (§2) Mixed-gender human cryopreserved hepatocytes, male Sprague-Dawley rat cryopreserved hepatocytes, and male Beagle dog cryopreserved hepatocytes were purchased from XenoTech. The hepatocytes were thawed and prepared according to the vendor's instructions, pooled into Krebs Henseleit buffer (KHB, pH 7.4), and kept on ice prior to the experiments. […] The final DMSO content in the incubation mixture was ≤0.1%. […] Aliquots of the test article were withdrawn (n=1) at 0, 15, 30, 60, and 120 minutes. […] Aliquots of 7-HC were withdrawn (n=1) at 0 and 15 minutes. The reaction was immediately terminated by adding two volumes of ice-cold acetonitrile (ACN) to the test article samples and three volumes of ACN containing internal standard to the positive control samples.

[8] = microsomes; remark: listed apart in the source
[9] = Plasma stability and formation of treprostinil, dog plasma; type: in vitro ADME; conditions: for Formation of Treprostinil, Concentration: prodrug dosed at 1 μM; for Half-Life / Percent Remaining: 1 μM, 37° C.
Method: as §1

[10] = Plasma stability and formation of treprostinil, human plasma; type: in vitro ADME; conditions: for Formation of Treprostinil, Concentration: prodrug dosed at 1 μM
Method: as §1

[11] = Stability and formation of treprostinil in rat cryopreserved hepatocytes
Method: as §2

[12] = Stability and formation of treprostinil in dog cryopreserved hepatocytes
Method: as §2

[13] = Hydrolysis of treprostinil prodrugs to treprostinil at pH 6, 7 and 8 and 40 C; type: physicochemical
Source text: Tables 26, 27 and 28 present data for hydrolysis of selected treprostinil prodrugs at pH 6, 7 and 8, respectively, and 40 C.

Substance: treprostinil diacetate [Prodrug LXXII]
Activity at the DP1 receptor compared to treprostinil [1]: several hundred-fold less active
Activity at the IP receptor compared to treprostinil [2]: inactive
Activity at the EP2 receptor compared to treprostinil [3]: non-traditional dose response curve
Half-Life [4]: >120 min
Formation of Treprostinil, Concentration ([4]; 0 min): 0 µM
Formation of Treprostinil, Concentration ([4]; 15 min): 0 µM
Formation of Treprostinil, Concentration ([4]; 30 min): 0 µM
Formation of Treprostinil, Concentration ([4]; 60 min): 0 µM
Formation of Treprostinil, Concentration ([4]; 120 min): 0.0126 µM
Half-Life [5]: <10 min
Formation of Treprostinil, Concentration ([6]; 0 min): 0 µM
Half-Life [6]: >120 min
Formation of Treprostinil, Concentration ([6]; 60 mm): 0.00595 µM
Formation of Treprostinil, Concentration ([6]; 15 min): 0 µM
Formation of Treprostinil, Concentration ([6]; 30 min): 0 µM
Percent Remaining ([6]; 60 min): 83.6%
Percent Remaining ([6]; 120 min): 79.7%
Formation of Treprostinil, Concentration ([6]; 120 min): 0.0151 µM
Treprostinil Concentration, 0 min [7]: 0.00458 µM
Treprostinil Concentration, 15 min [7]: 0.562 µM
Treprostinil Concentration, 30 min [7]: 0.491 µM
Treprostinil Concentration, 60 min [7]: 0.433 µM
Treprostinil Concentration, 120 min [7]: 0.364 µM
Half-Life [8]: <10 min
Formation of Treprostinil, Concentration ([9]; 0 min): 0 µM
Half-Life [9]: >120 min
Percent Remaining ([9]; 15 min): 96.7%
Formation of Treprostinil, Concentration ([9]; 15 min): 0 µM
Formation of Treprostinil, Concentration ([9]; 30 min): 0 µM
Percent Remaining ([9]; 120 min): 82.9%
Formation of Treprostinil, Concentration ([9]; 120 min): 0 µM
Formation of Treprostinil, Concentration [9]: 0 µM
Formation of Treprostinil, Concentration ([10]; 0 min): 0 µM
Half-Life ([10]; 1 μM, 37° C.): >120 min
Formation of Treprostinil, Concentration ([10]; 15 min): 0 µM
Formation of Treprostinil, Concentration ([10]; 30 min): 0 µM
Percent Remaining ([10]; 120 min, 1 μM, 37° C.): 86.5%
Formation of Treprostinil, Concentration ([10]; 120 min): 0 µM
Formation of Treprostinil, Concentration [10]: 0 µM
Treprostinil Concentration, 0 min [11]: 0 µM
Treprostinil Concentration, 15 min [11]: 0.24 µM
Treprostinil Concentration, 30 min [11]: 0.301 µM
Treprostinil Concentration, 60 min [11]: 0.298 µM
Treprostinil Concentration, 120 min [11]: 0.274 µM
Treprostinil Concentration, 0 min [12]: 0.0636 µM
Treprostinil Concentration, 15 min [12]: 0.671 µM
Treprostinil Concentration, 30 min [12]: 0.541 µM
Treprostinil Concentration, 60 min [12]: 0.465 µM
Treprostinil Concentration, 120 min [12]: 0.401 µM
CLint ([12]; hepatocytes): >0.0308 mL/min/mg protein
Half-Life ([12]; hepatocytes): <15 min
Hydrolysis of prodrug to treprostinil, % Area, t = 1 week ([13]; pH 6, 40 C): 0.00 % Area
Hydrolysis of prodrug to treprostinil, % Area, t = 2 weeks ([13]; pH 6, 40 C): 0.00 % Area
Hydrolysis of prodrug to treprostinil, % Area, t = 3 weeks ([13]; pH 6, 40 C): 0.00 % Area
Hydrolysis of prodrug to treprostinil, % Area, t = 1 week ([13]; pH 7, 40 C): 0.00 % Area
Hydrolysis of prodrug to treprostinil, % Area, t = 2 weeks ([13]; pH 7, 40 C): 0.00 % Area
Hydrolysis of prodrug to treprostinil, % Area, t = 3 weeks ([13]; pH 7, 40 C): 0.00 % Area
Hydrolysis of prodrug to treprostinil, % Area, t = 1 week ([13]; pH 8, 40 C): 0.00 % Area
Hydrolysis of prodrug to treprostinil, % Area, t = 2 weeks ([13]; pH 8, 40 C): 0.00 % Area
Hydrolysis of prodrug to treprostinil, % Area, t = 3 weeks ([13]; pH 8, 40 C): 0.00 % Area

Activity at the IP receptor compared to treprostinil [2]: inactive
Activity at the EP2 receptor compared to treprostinil [3]: inactive
Half-Life [4]: >120 min
Formation of Treprostinil, Concentration ([4]; 0 min): 0 µM
Formation of Treprostinil, Concentration ([4]; 15 min): 0 µM
Formation of Treprostinil, Concentration ([4]; 30 min): 0 µM
Formation of Treprostinil, Concentration ([4]; 60 min): 0 µM
Formation of Treprostinil, Concentration ([4]; 120 min): 0.0121 µM
Half-Life [6]: <15 min
Treprostinil Concentration, 0 min [7]: 0 µM
Treprostinil Concentration, 15 min [7]: 0.118 µM
Treprostinil Concentration, 30 min [7]: 0.211 µM
Treprostinil Concentration, 60 min [7]: 0.273 µM
Treprostinil Concentration, 120 min [7]: 0.259 µM
Half-Life [9]: >120 min
Half-Life ([10]; 1 μM, 37° C.): >120 min
Treprostinil Concentration, 0 min [11]: 0 µM
Treprostinil Concentration, 15 min [11]: 0.422 µM
Treprostinil Concentration, 30 min [11]: 0.403 µM
Treprostinil Concentration, 60 min [11]: 0.347 µM
Treprostinil Concentration, 120 min [11]: 0.292 µM
Treprostinil Concentration, 0 min [12]: 0.00293 µM
Treprostinil Concentration, 15 min [12]: 0.501 µM
Treprostinil Concentration, 30 min [12]: 0.408 µM
Treprostinil Concentration, 60 min [12]: 0.348 µM
Treprostinil Concentration, 120 min [12]: 0.303 µM
Hydrolysis of prodrug to treprostinil, % Area, t = 1 week ([13]; pH 6, 40 C): 0.00 % Area
Hydrolysis of prodrug to treprostinil, % Area, t = 2 weeks ([13]; pH 6, 40 C): 0.00 % Area
Hydrolysis of prodrug to treprostinil, % Area, t = 3 weeks ([13]; pH 6, 40 C): 0.00 % Area
Hydrolysis of prodrug to treprostinil, % Area, t = 1 week ([13]; pH 7, 40 C): 0.00 % Area
Hydrolysis of prodrug to treprostinil, % Area, t = 2 weeks ([13]; pH 7, 40 C): 0.00 % Area
Hydrolysis of prodrug to treprostinil, % Area, t = 3 weeks ([13]; pH 7, 40 C): 0.00 % Area
Hydrolysis of prodrug to treprostinil, % Area, t = 1 week ([13]; pH 8, 40 C): 0.00 % Area
Hydrolysis of prodrug to treprostinil, % Area, t = 2 weeks ([13]; pH 8, 40 C): 0.00 % Area
Hydrolysis of prodrug to treprostinil, % Area, t = 3 weeks ([13]; pH 8, 40 C): 0.38 % Area
Substance: treprostinil dicarbonate [Prodrug LXXI]
